# Data as given in ChEMBL document CHEMBL3885861, “Open TG-GATES”.
# Species: Rattus norvegicus
# Assay: Open TG-GATES - Regimen: Daily Repeat
# Assay type: toxicity, organism-based, Sprague-Dawley
# Parameters: regimen Daily Repeat, gender Male, age 6 weeks
# Conditions: in vivo, po, route gavage; for APTT / Bas / Eos / Fbg / Hb / Ht / Lym / MCH / MCV / Mono / Neu / PT / Plat / RBC / Ret / WBC / MCHC: tissue Blood; for KIDNEY_L / KIDNEY_R / KIDNEY_TOTAL: tissue Kidney; for LIVER: tissue Liver; for ALP / ALT / AST / CRE / Ca / Cl / DBIL / GLC / IP / K / LDH / Na / PL / RALB / TBIL / TC / TG / TP / gamma-GTP / BUN: tissue Plasma
# [1] = 0 mg/kg, 72 h, dose level Control, time 3 day
# [2] = 0 mg/kg, […], dose level Control, time 7 day
# [3] = 0 mg/kg, […], dose level Control, time 14 day
# [4] = 0 mg/kg, […], dose level Control, time 28 day
# [5] = 100 mg/kg, 72 h, dose level Low, time 3 day
# [6] = 100 mg/kg, […], dose level Low, time 7 day
# [7] = 100 mg/kg, […], dose level Low, time 14 day
# [8] = 100 mg/kg, […], dose level Low, time 28 day
structure (smiles),measurement,setting,value
CCOc1ccc(NC(C)=O)cc1 [PHENACETIN],TERMINAL_BW,[1],242.4 g
same,APTT,[1],16.7 s
same,Bas,[1],0%
same,Eos,[1],1%
same,Fbg,[1],299.2 mg/dL
same,Hb,[1],13.2 g/dL
same,Ht,[1],39.8%
same,Lym,[1],71.2%
same,MCH,[1],21.1 pg
same,MCV,[1],63.4 fL
same,Mono,[1],2.8%
same,Neu,[1],24.4%
same,PT,[1],13.2 s
same,Plat,[1],121.2 x10_4/uL
same,RBC,[1],628.2 x10_4/ul
same,Ret,[1],6.6%
same,WBC,[1],85.4 x10_2/uL
same,KIDNEY_L,[1],1 g
same,KIDNEY_R,[1],1 g
same,KIDNEY_TOTAL,[1],2 g
same,LIVER,[1],11.5 g
same,ALP,[1],2120 IU/L
same,ALT,[1],37.8 IU/L
same,AST,[1],67.2 IU/L
same,CRE,[1],0.2 mg/dL
same,Ca,[1],11.1 mg/dL
same,Cl,[1],105.6 meq/L
same,DBIL,[1],0.004 mg/dL
same,GLC,[1],176.6 mg/dL
same,IP,[1],7.2 mg/dL
same,K,[1],4.2 meq/L
same,LDH,[1],118.6 IU/L
same,Na,[1],143.8 meq/L
same,PL,[1],171 mg/dL
same,RALB,[1],2.6 g/dL
same,TBIL,[1],0.04 mg/dL
same,TC,[1],85.8 mg/dL
same,TG,[1],102.4 mg/dL
same,TP,[1],5.7 g/dL
same,gamma-GTP,[1],1 IU/L
same,TERMINAL_BW,[2],272.4 g
same,TERMINAL_BW,[3],332.8 g
same,TERMINAL_BW,[4],424.6 g
same,APTT,[2],17.7 s
same,Bas,[2],0%
same,Eos,[2],1.4%
same,Fbg,[2],300.2 mg/dL
same,Hb,[2],13.9 g/dL
same,Ht,[2],41.1%
same,Lym,[2],78.6%
same,MCH,[2],21.2 pg
same,MCHC,[2],33.8%
same,MCV,[2],62.6 fL
same,Mono,[2],2.6%
same,PT,[2],13.5 s
same,Plat,[2],118.8 x10_4/uL
same,RBC,[2],656.2 x10_4/ul
same,Ret,[2],5.4%
same,WBC,[2],93.4 x10_2/uL
same,APTT,[3],17.5 s
same,Bas,[3],0%
same,Eos,[3],1.4%
same,Fbg,[3],320.2 mg/dL
same,Hb,[3],14.3 g/dL
same,Ht,[3],42.1%
same,Lym,[3],75%
same,MCH,[3],19.9 pg
same,MCHC,[3],34%
same,MCV,[3],58.6 fL
same,Mono,[3],2.6%
same,Neu,[3],20.6%
same,PT,[3],13.3 s
same,Plat,[3],117.7 x10_4/uL
same,RBC,[3],720.4 x10_4/ul
same,Ret,[3],4.1%
same,WBC,[3],108.4 x10_2/uL
same,APTT,[4],23 s
same,Bas,[4],0%
same,Eos,[4],1.4%
same,Fbg,[4],276 mg/dL
same,Hb,[4],15 g/dL
same,Ht,[4],43.5%
same,Lym,[4],73.2%
same,MCH,[4],19.2 pg
same,MCV,[4],55.6 fL
same,Mono,[4],2.6%
same,Neu,[4],22.2%
same,PT,[4],14 s
same,Plat,[4],114.1 x10_4/uL
same,RBC,[4],782.6 x10_4/ul
same,Ret,[4],2.6%
same,WBC,[4],109.3 x10_2/uL
same,KIDNEY_L,[2],1.1 g
same,KIDNEY_R,[2],1.1 g
same,KIDNEY_TOTAL,[2],2.3 g
same,KIDNEY_L,[3],1.3 g
same,KIDNEY_R,[3],1.3 g
same,KIDNEY_TOTAL,[3],2.7 g
same,KIDNEY_L,[4],1.4 g
same,KIDNEY_R,[4],1.4 g
same,KIDNEY_TOTAL,[4],2.7 g
same,LIVER,[2],12.1 g
same,LIVER,[3],13.9 g
same,LIVER,[4],17 g
same,ALP,[2],1453 IU/L
same,ALT,[2],33.4 IU/L
same,AST,[2],65.8 IU/L
same,BUN,[2],15 mg/dL
same,CRE,[2],0.2 mg/dL
same,Ca,[2],10.9 mg/dL
same,Cl,[2],105 meq/L
same,DBIL,[2],0.004 mg/dL
same,IP,[2],7.1 mg/dL
same,K,[2],4.2 meq/L
same,LDH,[2],95.8 IU/L
same,PL,[2],167.6 mg/dL
same,RALB,[2],2.7 g/dL
same,TBIL,[2],0.044 mg/dL
same,TC,[2],84.4 mg/dL
same,TG,[2],127.8 mg/dL
same,TP,[2],5.9 g/dL
same,gamma-GTP,[2],1 IU/L
same,ALP,[3],1542.8 IU/L
same,ALT,[3],36.4 IU/L
same,AST,[3],62.4 IU/L
same,BUN,[3],14.6 mg/dL
same,CRE,[3],0.2 mg/dL
same,Ca,[3],10.8 mg/dL
same,Cl,[3],104.6 meq/L
same,DBIL,[3],0.024 mg/dL
same,GLC,[3],181.4 mg/dL
same,IP,[3],7.1 mg/dL
same,K,[3],4.2 meq/L
same,LDH,[3],158.6 IU/L
same,Na,[3],143.6 meq/L
same,PL,[3],152 mg/dL
same,RALB,[3],2.7 g/dL
same,TBIL,[3],0.062 mg/dL
same,TC,[3],72.6 mg/dL
same,TG,[3],129 mg/dL
same,TP,[3],6 g/dL
same,gamma-GTP,[3],1.2 IU/L
same,ALP,[4],1212.8 IU/L
same,ALT,[4],37 IU/L
same,AST,[4],68.2 IU/L
same,BUN,[4],17.2 mg/dL
same,CRE,[4],0.3 mg/dL
same,Ca,[4],10.7 mg/dL
same,Cl,[4],104.8 meq/L
same,DBIL,[4],0.02 mg/dL
same,GLC,[4],185.2 mg/dL
same,IP,[4],6 mg/dL
same,K,[4],4 meq/L
same,LDH,[4],76.6 IU/L
same,Na,[4],144.8 meq/L
same,PL,[4],149 mg/dL
same,RALB,[4],2.9 g/dL
same,TBIL,[4],0.048 mg/dL
same,TG,[4],162.4 mg/dL
same,TP,[4],6.4 g/dL
same,gamma-GTP,[4],1 IU/L
same,TERMINAL_BW,[5],232.8 g
same,APTT,[5],20.2 s
same,Bas,[5],0%
same,Eos,[5],1.2%
same,Fbg,[5],290.4 mg/dL
same,Ht,[5],41.7%
same,Lym,[5],76.8%
same,MCH,[5],20.4 pg
same,MCHC,[5],33%
same,MCV,[5],61.8 fL
same,Mono,[5],2.6%
same,PT,[5],13.4 s
same,Plat,[5],116.5 x10_4/uL
same,RBC,[5],676.4 x10_4/ul
same,Ret,[5],5.2%
same,WBC,[5],101.2 x10_2/uL
same,KIDNEY_L,[5],1 g
same,KIDNEY_R,[5],1 g
same,KIDNEY_TOTAL,[5],2.1 g
same,LIVER,[5],10.9 g
same,ALP,[5],1708.4 IU/L
same,ALT,[5],40 IU/L
same,AST,[5],70.4 IU/L
same,BUN,[5],13 mg/dL
same,CRE,[5],0.2 mg/dL
same,Ca,[5],11.2 mg/dL
same,Cl,[5],105.8 meq/L
same,DBIL,[5],0.006 mg/dL
same,GLC,[5],172.8 mg/dL
same,IP,[5],6.8 mg/dL
same,K,[5],4.2 meq/L
same,LDH,[5],148 IU/L
same,Na,[5],143.4 meq/L
same,PL,[5],158.8 mg/dL
same,RALB,[5],2.7 g/dL
same,TBIL,[5],0.04 mg/dL
same,TC,[5],77 mg/dL
same,TG,[5],110.6 mg/dL
same,TP,[5],5.8 g/dL
same,gamma-GTP,[5],1.2 IU/L
same,TERMINAL_BW,[6],270.6 g
same,TERMINAL_BW,[7],323.2 g
same,TERMINAL_BW,[8],411.2 g
same,APTT,[6],16.8 s
same,Bas,[6],0%
same,Eos,[6],1.2%
same,Fbg,[6],298.2 mg/dL
same,Hb,[6],14.1 g/dL
same,Ht,[6],42%
same,Lym,[6],78.2%
same,MCHC,[6],33.7%
same,MCV,[6],60.3 fL
same,Mono,[6],2%
same,Neu,[6],18%
same,PT,[6],13.4 s
same,Plat,[6],123.3 x10_4/uL
same,RBC,[6],696.4 x10_4/ul
same,Ret,[6],5.6%
same,WBC,[6],96.3 x10_2/uL
same,APTT,[7],17.8 s
same,Bas,[7],0.4%
same,Eos,[7],0.8%
same,Fbg,[7],292.4 mg/dL
same,Ht,[7],43.4%
same,Lym,[7],79.8%
same,MCH,[7],19.9 pg
same,MCHC,[7],34%
same,MCV,[7],58.5 fL
same,Mono,[7],2%
same,Neu,[7],16.6%
same,PT,[7],13.3 s
same,Plat,[7],118.2 x10_4/uL
same,RBC,[7],740.8 x10_4/ul
same,Ret,[7],4.1%
same,WBC,[7],112.5 x10_2/uL
same,APTT,[8],18.4 s
same,Bas,[8],0%
same,Eos,[8],1.6%
same,Fbg,[8],278.8 mg/dL
same,Hb,[8],15 g/dL
same,Ht,[8],43.8%
same,MCH,[8],19 pg
same,MCHC,[8],34.3%
same,MCV,[8],55.3 fL
same,Mono,[8],2.4%
same,Plat,[8],122.4 x10_4/uL
same,RBC,[8],792.8 x10_4/ul
same,Ret,[8],3%
same,WBC,[8],92.4 x10_2/uL
same,KIDNEY_L,[6],1.1 g
same,KIDNEY_R,[6],1.1 g
same,KIDNEY_TOTAL,[6],2.3 g
same,KIDNEY_L,[7],1.2 g
same,KIDNEY_R,[7],1.2 g
same,KIDNEY_TOTAL,[7],2.5 g
same,KIDNEY_L,[8],1.4 g
same,KIDNEY_R,[8],1.4 g
same,KIDNEY_TOTAL,[8],2.8 g
same,LIVER,[6],12.8 g
same,LIVER,[7],13.9 g
same,LIVER,[8],16.4 g
same,ALP,[6],1550.8 IU/L
same,BUN,[6],15.4 mg/dL
same,CRE,[6],0.2 mg/dL
same,Ca,[6],11.2 mg/dL
same,Cl,[6],104.8 meq/L
same,DBIL,[6],0.006 mg/dL
same,GLC,[6],186 mg/dL
same,IP,[6],6.9 mg/dL
same,K,[6],4.3 meq/L
same,LDH,[6],79.4 IU/L
same,Na,[6],143.4 meq/L
same,PL,[6],165.2 mg/dL
same,RALB,[6],2.7 g/dL
same,TBIL,[6],0.044 mg/dL
same,TG,[6],152 mg/dL
same,TP,[6],6 g/dL
same,gamma-GTP,[6],1 IU/L
same,ALP,[7],1582 IU/L
same,ALT,[7],39.4 IU/L
same,AST,[7],66.4 IU/L
same,CRE,[7],0.2 mg/dL
same,Ca,[7],10.9 mg/dL
same,Cl,[7],106 meq/L
same,DBIL,[7],0.022 mg/dL
same,GLC,[7],184.2 mg/dL
same,IP,[7],6.7 mg/dL
same,K,[7],4.2 meq/L
same,LDH,[7],118.6 IU/L
same,Na,[7],143.4 meq/L
same,PL,[7],162 mg/dL
same,RALB,[7],2.7 g/dL
same,TBIL,[7],0.062 mg/dL
same,TC,[7],73.8 mg/dL
same,TG,[7],157 mg/dL
same,TP,[7],6 g/dL
same,gamma-GTP,[7],1.2 IU/L
same,ALP,[8],1231.2 IU/L
same,ALT,[8],35.8 IU/L
same,AST,[8],60.8 IU/L
same,BUN,[8],15.6 mg/dL
same,CRE,[8],0.3 mg/dL
same,Ca,[8],10.8 mg/dL
same,Cl,[8],105.6 meq/L
same,DBIL,[8],0.02 mg/dL
same,GLC,[8],191.8 mg/dL
same,IP,[8],6.1 mg/dL
same,K,[8],3.7 meq/L
same,LDH,[8],66.6 IU/L
same,Na,[8],145.2 meq/L
same,PL,[8],148 mg/dL
same,RALB,[8],2.9 g/dL
same,TBIL,[8],0.052 mg/dL
same,TC,[8],63.8 mg/dL
same,TG,[8],156 mg/dL
